This note sets out measurements from patent US20180339016A1 (priority 2015, published 2018).

Some results are limits rather than exact numbers.

Assay [1] relates to Escherichia coli (ATCC 25922). The note with it: peptide alone; peptide concentration required to inhibit growth by 20% (so in the source). As for the experimental part:
(§1) The N-terminus of the peptides were acetylated and the C-terminus was amidated. The kinked structure can rapidly reduce the alpha-helical content, thereby greatly reducing the toxicity of the peptide against host cells. In addition, because of the potential to show specificity for the Gram-negative bacterial membrane, Pro-mutants were prepared by site-directed mutagenesis. Using the prepared peptides, their MIC for the Gram-negative bacterium E. coli and the Gram-positive bacterium S. aureus and their hemolytic activity for host cells were examined (Table 1).
(§2) To measure the synergy between the membrane-activating peptides and the repositioning drug, a 10× compound was prepared, and then serially diluted ⅔-fold with distilled water. An MH broth (900 μl) was added to and mixed with the 10× compound (100 μl), and then 200 μL of the mixture was taken and added to a 96-well plate. E. coli cultured for one day was adjusted to 0.5 MCF using MCFarland, and diluted 10-fold, and then 10 μl of the dilution was added to each well of the plate (5×10^5 CFU/mL). After addition of the bacterial cells, plate was incubated at 37° C. for 18 hours, and then the OD value at UV-Vis (600 nm) was measured. Cell viability (%)=(OD600 of sample−OD600 of negative control)/(OD600 of positive control−OD600 of negative control)×100.

Assay [2] concerns Staphylococcus aureus (ATCC 29213). Description: MIC of peptide against S. aureus. In kind it is cell-based. The note with it: peptide alone. As for the experimental part:
as §1

Another assay deals with E. coli ATCC 25922. Description: Antibiotic interaction assay (Wimley), 2/3 broth microdilution: MIC alone, MIC of combination, FICI. In kind it is cell-based. The procedure:
Synergy was evaluated by an antibiotic interaction assay (Wimley, 2015) Using the method of Wimley (BBA, 2015, v. 1848(1), pp. 8-15), synergy between the membrane-activating peptide and an antibiotic was measured by an FICI value (FIG. 17). […] Thus, to accurately examine synergy, a ⅔ dilution method which observes MIC at denser concentration intervals is advantageous over a ½ dilution method in statistical terms. […] In the same manner, the MIC of an antibiotic or repositioning drug (second line) is measured. In the third line, the two compounds are mixed after putting half amount each, and the MIC thereof is measured.
A broth microdilution technique (⅔ dilution) was used together with an MH broth. E. coli treated with an antibiotic and the peptide was incubated in a 37° C. incubator for 18 hours.
as §2

Where [3] appears, read: labelled peptide + colistin + linezolid.
[4] abbreviates: three compounds: labelled peptide + colistin + linezolid.

Consider KLLKLLPKLLKLLK [KL-K7P], for which, in assay [1], the “MIC [μM] Against E. coli” value is 2.5 µM. The “MIC [μM] Against S. aureus” value in assay [2] came out at 5.0 µM.

On to KLLKPLKKLLKLLK [KL-L5P], for which, in assay [1], the “MIC [μM] Against E. coli” value worked out at 5.0 µM. In addition, in assay [2], the “MIC [μM] Against S. aureus” value is 20 µM.

Regarding KLPKLLKKLLKLLK [KL-L3P], the “MIC [μM] Against E. coli” value in assay [1] is 10 µM. In addition, in assay [2], the “MIC [μM] Against S. aureus” value amounted to 20 µM.

On to KLR8KLLKKPLS5LLK [st 3, 11], for which, in assay [1], the “MIC [μM] Against E. coli” value worked out at 2.5 µM. Further, the “MIC of combination (μM): antibiotic (colistin)” value with E. coli ATCC 25922 (colistin concentration in combination with labelled peptide) was 0.12 µM. In the assay on E. coli ATCC 25922 (labelled peptide + colistin), the “FICI of peptide with colistin” value came to 0.86, the FICIPeptide is reported as 0.59 and the “FICIcolistin / FICIantibiotic” value is listed as 0.27. Further, in the assay with E. coli ATCC 25922 (setting [3]), the “FICI of peptide with colistin and linezolid” value came out at 0.70; the FICIPeptide was 0.11; the FICIcolistin was 0.25; the FICIlinezolid amounted to 0.33. Also, in the assay on E. coli ATCC 25922 (peptide alone), the “MIC of peptide” value came to 2.5 µM. Also, the “MIC of combination (μM): peptide” value in the assay on E. coli ATCC 25922 (peptide concentration in combination with colistin) came out at 0.61 µM. Also, in the assay with E. coli ATCC 25922 (setting [4]), the “MIC of combination (μM): colistin” value turned out to be 0.060 µM, the “MIC of combination (μM): linezolid” value amounted to 15 µM and the “MIC of combination (μM): peptide” value came to 0.30 µM.

For the substance KPLKLLKKLLKLLK [KL-L2P], in assay [1], the “MIC [μM] Against E. coli” value was determined as 5 µM. The “MIC [μM] Against S. aureus” value in assay [2] turned out to be 20 µM.

Turning to LKKLLKLLKKLLKL, the “MIC [μM] Against E. coli” value in assay [1] amounted to 20 µM. Further, in assay [2], the “MIC [μM] Against S. aureus” value came to 20 µM.

Consider LKKLLKLLKKPPKL [LK-L11PL12P], for which the “MIC [μM] Against E. coli” value in assay [1] was 2.5 µM. Also, the “MIC [μM] Against S. aureus” value in assay [2] was greater than 40 µM.

Take LKKLLKLLKPLLKL [LK-K10P]: in assay [1], the “MIC [μM] Against E. coli” value was 5.0 µM. Also, in assay [2], the “MIC [μM] Against S. aureus” value is 5.0 µM.

On to LKKLLKLLPKLLKL [LK-K9P], for which the “MIC [μM] Against E. coli” value in assay [1] was 5.0 µM. The “MIC [μM] Against S. aureus” value in assay [2] amounted to 5.0 µM.

With LKKLLKLPKKPLKL [LK-L8PL11P], in assay [1], the “MIC [μM] Against E. coli” value stood at 40 µM. Also, the “MIC [μM] Against S. aureus” value in assay [2] is greater than 40 µM.

With LKKLLKPLKKLLKL [LK-L7P], in assay [1], the “MIC [μM] Against E. coli” value came out at 2.5 µM. Moreover, the “MIC [μM] Against S. aureus” value in assay [2] was 20 µM.

As to LKKLLKPLKKPLKL [LK-L7PL11P], in assay [1], the “MIC [μM] Against E. coli” value amounted to 20 µM. Moreover, in assay [2], the “MIC [μM] Against S. aureus” value was greater than 40 µM.

On to LKKLLPLLKKLLKL [LK-K6P], for which, in assay [1], the “MIC [μM] Against E. coli” value was found to be 2.5 µM. Further, in assay [2], the “MIC [μM] Against S. aureus” value amounted to 5.0 µM.

Regarding LKKLPKLLKKLLKL [LK-L5P], the “MIC [μM] Against E. coli” value in assay [1] worked out at 5.0 µM. Also, the “MIC [μM] Against S. aureus” value in assay [2] is 20 µM.

Take LKKLPKLLKKPLKL [LK-L5PL11P]: the “MIC [μM] Against E. coli” value in assay [1] came out at 40 µM. Also, the “MIC [μM] Against S. aureus” value in assay [2] is greater than 40 µM.

Regarding LKKLPKLPKKLLKL [LK-L5PL8P], in assay [1], the “MIC [μM] Against E. coli” value was determined as 20 µM. Further, the “MIC [μM] Against S. aureus” value in assay [2] is greater than 40 µM.

Take LKKPLKLLKKLLKL [LK-L4P]: in assay [1], the “MIC [μM] Against E. coli” value worked out at 5 µM. In assay [2], the “MIC [μM] Against S. aureus” value worked out at 40 µM.

In the case of LKKPLKLLKKPLKL [LK-L4PL11P], the “MIC [μM] Against E. coli” value in assay [1] is greater than 40 µM. In addition, in assay [2], the “MIC [μM] Against S. aureus” value was greater than 40 µM.

On to LKKPLKLPKKLLKL [LK-L4PL8P], for which the “MIC [μM] Against E. coli” value in assay [1] was found to be 40 µM. In addition, in assay [2], the “MIC [μM] Against S. aureus” value was greater than 40 µM.

With LKKPPKLLKKLLKL [LK-L4PL5P], the “MIC [μM] Against E. coli” value in assay [1] stood at 5 µM. For the same substance, the “MIC [μM] Against S. aureus” value in assay [2] was greater than 40 µM.
